Measured values reported in the NIST ThermoML archive (doi:10.1016/j.jct.2011.10.014).
“And” between values parts separate entries of the source, which are not always exact repeats. Equal values may be shown once. Numbers after ± are expanded uncertainties.

Assay: molar heat capacity at constant pressure
Details: 101.33 kPa, Crystal, Vacuum adiabatic calorimetry

O=C([O-])[O-].[Pb+2] [lead(II) carbonate]
Details | molar heat capacity at constant pressure
229.94 K | 77.92 ± 0.26 J/K/mol
230 K | 77.94 ± 0.28 J/K/mol
233.13 K | 78.35 ± 0.26 J/K/mol
236.26 K | 78.83 ± 0.26 J/K/mol
239.37 K | 79.24 ± 0.26 J/K/mol
240 K | 79.27 ± 0.28 J/K/mol
242.47 K | 79.61 ± 0.26 J/K/mol
245.56 K | 79.93 ± 0.27 J/K/mol
247.36 K | 80.25 ± 0.27 J/K/mol
247.44 K | 80.03 ± 0.27 J/K/mol
248.53 K | 80.25 ± 0.27 J/K/mol
248.62 K | 80.46 ± 0.27 J/K/mol
249.63 K | 80.36 ± 0.27 J/K/mol
250 K | 80.62 ± 0.28 J/K/mol
250.32 K | 80.37 ± 0.27 J/K/mol
250.72 K | 80.4 ± 0.27 J/K/mol
251.68 K | 80.91 ± 0.27 J/K/mol
251.81 K | 80.67 ± 0.27 J/K/mol
252.9 K | 80.66 ± 0.27 J/K/mol
253.25 K | 80.99 ± 0.27 J/K/mol
253.98 K | 80.8 ± 0.27 J/K/mol
254.73 K | 81.2 ± 0.27 J/K/mol
255.06 K | 81.13 ± 0.27 J/K/mol
255.71 K | 81.1 ± 0.27 J/K/mol
256.15 K | 81.11 ± 0.27 J/K/mol
256.2 K | 81.29 ± 0.27 J/K/mol
256.35 K | 81.17 ± 0.27 J/K/mol
257 K | 81.19 ± 0.27 J/K/mol
257.23 K | 81.2 ± 0.27 J/K/mol
257.66 K | 81.19 ± 0.27 J/K/mol
257.75 K | 81.55 ± 0.27 J/K/mol
258.31 K | 81.42 ± 0.27 J/K/mol
258.32 K | 81.33 ± 0.27 J/K/mol
258.97 K | 81.78 ± 0.27 J/K/mol
259.12 K | 81.62 ± 0.27 J/K/mol
259.4 K | 81.47 ± 0.27 J/K/mol
259.66 K | 81.57 ± 0.27 J/K/mol
260 K | 81.98 ± 0.28 J/K/mol
260.33 K | 81.49 ± 0.27 J/K/mol
260.47 K | 81.78 ± 0.27 J/K/mol
260.76 K | 82.18 ± 0.27 J/K/mol
260.93 K | 82.3 ± 0.27 J/K/mol
261 K | 81.89 ± 0.27 J/K/mol
261.55 K | 81.78 ± 0.27 J/K/mol
261.69 K | 82.09 ± 0.27 J/K/mol
262.03 K | 82.18 ± 0.27 J/K/mol
262.39 K | 82.04 ± 0.27 J/K/mol
262.62 K | 82.88 ± 0.27 J/K/mol
262.63 K | 81.92 ± 0.27 J/K/mol
263.17 K | 81.79 ± 0.27 J/K/mol
263.27 K | 82.56 ± 0.27 J/K/mol
263.7 K | 82.23 ± 0.27 J/K/mol
263.78 K | 82.71 ± 0.27 J/K/mol
263.85 K | 82.12 ± 0.27 J/K/mol
263.9 K | 82.69 ± 0.27 J/K/mol
264.53 K | 82.15 ± 0.27 J/K/mol
264.54 K | 82.73 ± 0.27 J/K/mol
264.79 K | 82.47 ± 0.27 J/K/mol
264.95 K | 82.64 ± 0.27 J/K/mol
265.18 K | 82.86 ± 0.27 J/K/mol
265.2 K | 82.17 ± 0.27 J/K/mol
265.82 K | 82.91 ± 0.27 J/K/mol
265.86 K | 82.45 ± 0.27 J/K/mol
265.88 K | 82.3 ± 0.27 J/K/mol
266.47 K | 83.02 ± 0.27 J/K/mol
266.56 K | 82.66 ± 0.27 J/K/mol
266.78 K | 83.22 ± 0.27 J/K/mol
266.94 K | 82.58 ± 0.27 J/K/mol
267.12 K | 83.34 ± 0.27 J/K/mol
267.27 K | 82.4 ± 0.27 J/K/mol
267.77 K | 83.48 ± 0.27 J/K/mol
267.85 K | 83 ± 0.27 J/K/mol
267.95 K | 82.62 ± 0.27 J/K/mol
268.01 K | 82.76 ± 0.27 J/K/mol
268.42 K | 83.69 ± 0.27 J/K/mol
268.63 K | 82.71 ± 0.27 J/K/mol
269.07 K | 83.96 ± 0.27 J/K/mol and 83 ± 0.27 J/K/mol
269.31 K | 82.9 ± 0.27 J/K/mol
269.73 K | 83.98 ± 0.27 J/K/mol
269.75 K | 84.22 ± 0.27 J/K/mol
269.99 K | 83.23 ± 0.27 J/K/mol
270 K | 83.33 ± 0.28 J/K/mol
270.14 K | 83.5 ± 0.27 J/K/mol
